# Test results: article PMC9260854 (Biochemistry, 2022)
# Numbering of substitutions follows the chain as printed.
# Key:
# SULT2B1b, S347D, W98A = target: T1, SULT2B1b, S347D, W98A (Homo sapiens, UniProt O00204, S347D/W98A); assay: Initial-rate parameters, direct-contact mutant W98A
# T1 sequence (O00204 1-365 W98A/S347D): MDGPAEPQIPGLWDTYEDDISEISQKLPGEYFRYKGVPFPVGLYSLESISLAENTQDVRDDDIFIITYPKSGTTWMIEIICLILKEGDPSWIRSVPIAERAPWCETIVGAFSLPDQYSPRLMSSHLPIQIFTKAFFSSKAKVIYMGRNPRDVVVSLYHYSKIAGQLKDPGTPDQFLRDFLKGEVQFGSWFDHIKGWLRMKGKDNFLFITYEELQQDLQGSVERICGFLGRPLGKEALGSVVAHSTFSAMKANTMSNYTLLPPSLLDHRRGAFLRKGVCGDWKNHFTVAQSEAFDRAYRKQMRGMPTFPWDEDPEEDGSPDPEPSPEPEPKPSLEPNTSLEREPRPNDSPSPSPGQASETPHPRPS
# SULT2B1b, S347D, Y257A = target: T2, SULT2B1b, S347D, Y257A (Homo sapiens, UniProt O00204, S347D/Y257A); assay: Initial-rate parameters, direct-contact mutant Y257A
# T2 sequence (O00204 1-365 Y257A/S347D): T1 sequence (O00204 1-365 W98A/S347D) with A98W, Y257A
# SULT2B1b, S347D, W13A = target: T3, SULT2B1b, S347D, W13A (Homo sapiens, UniProt O00204, S347D/W13A); assay: Initial-rate parameters, direct-contact mutant W13A
# T3 sequence (O00204 1-365 W13A/S347D): T1 sequence (O00204 1-365 W98A/S347D) with W13A, A98W
# [1] = target: T4, SULT2B1b C81S, C225S, C278S, S347D (Homo sapiens, UniProt O00204, C225S/C278S/C81S/S347D); assay: Initial-rate parameters, non DTNB-reactive scaffold; type: biochemical
# T4 sequence (O00204 1-365 C81S/C225S/C278S/S347D): T1 sequence (O00204 1-365 W98A/S347D) with C81S, A98W, C225S, C278S
# [2] = target: T5, SULT2B1b S347D spin-labeled at residue 21 (Homo sapiens, UniProt O00204, C225S/C278S/C81S/S21C/S347D); assay: Initial-rate parameters, spin-labeled mutant 21; type: biochemical
# T5 sequence (O00204 1-365 S21C/C81S/C225S/C278S/S347D): T1 sequence (O00204 1-365 W98A/S347D) with S21C, C81S, A98W, C225S, C278S
# [3] = target: T6, SULT2B1b S347D spin-labeled at residue 247 (Homo sapiens, UniProt O00204, C225S/C278S/C81S/S247C/S347D); assay: Initial-rate parameters, spin-labeled mutant 247; type: biochemical
# T6 sequence (O00204 1-365 C81S/C225S/S247C/C278S/S347D): T1 sequence (O00204 1-365 W98A/S347D) with C81S, A98W, C225S, S247C, C278S
smiles,measurement,setting,value
O=c1c(O)c(-c2ccc(O)c(O)c2)oc2cc(O)cc(O)c12 [quercetin],Ki,"SULT2B1b, S347D, W98A",5.3 µM
same,Ki,"SULT2B1b, S347D, Y257A",1600 nM
same,Ki,"SULT2B1b, S347D, W13A",7.5 µM
same,Ki,[1],300 nM
same,Ki,[2],330 nM
same,Ki,[3],320 nM
